Laboratory results taken from publication PMC3673949, “Small Molecule R1498 as a Well-Tolerated and Orally Active Kinase Inhibitor for Hepatocellular Carcinoma and Gastric Cancer Treatment via Targeting Angiogenesis and Mitosis Pathways” (PLoS ONE, 2013).
Read-outs that look alike come from different tables or passages of the source.

Assays:
[1] = system: hepatocellular carcinoma cell lines; assay: Cell proliferation assay (CCK-8, 72 h); assay type: cell-based; details: Homo sapiens, hepatocellular carcinoma cell line panel, read-out: overall mean IC50
Protocol: (§1) Each cell line was seeded in a 96-well tissue culture plate (Corning, NY) at a predetermined density in 180 µL complete medium, attached overnight and treated by compound for another 72 h. Then the medium was discarded and replaced with 10% CCK-8 (Dojindo, Kumamoto, Japan) in complete medium, then incubated the plates for another 2 h. The OD450 was measured with SpectraMAX 190 spectrophotometer (MDS, Sunnyvale, CA). A background absorbance of ODblank was subtracted from all wells.

[2] = system: nasopharyngeal carcinoma cell lines; assay: Cell proliferation assay (CCK-8, 72 h); assay type: cell-based; details: Homo sapiens, nasopharyngeal carcinoma cell line panel, read-out: overall mean IC50
Protocol: as §1

[3] = system: gastric cancer cell lines; assay: Cell proliferation assay (CCK-8, 72 h); assay type: cell-based; details: Homo sapiens, gastric cancer cell line panel, read-out: overall mean IC50
Protocol: as §1

[4] = system: phospho-Aurora kinase A (T288); assay: Immunofluorescence / western blot of Aurora A activity marker in SGC-7901; assay type: cell-based, human
Protocol: (§2) Cell lysate was prepared in RIPA buffer and quantified by the bicinchoninic acid (BCA) method (Pierce, Rockford, IL). Thirty micrograms of protein per sample was loaded onto a 4∼12% NuPAGE® Novex SDS gel (Invitrogen). The protein was transferred by an iBlot® dry blotting device (Invitrogen) onto nitrocellulose membranes. After blocking nonspecific binding with TBS/Tween20 (0.1%) (TBS/T) containing 5% non-fat milk for 1 h at room temperature, the membrane was incubated in phospho-Aurora A (Thr288) (C39D8) rabbit monoclonal antibody (Cell Signaling Technology, CST #3079, Beverly, MA) or phospho-Histone H3 (Ser10) rabbit polyclonal antibody (CST#9701) (1∶1000 in TBS/T containing 3% bovine serum albumin (BSA), and gently shaken at 4°C overnight. The membrane was washed with TBS/T three times to remove the unbound antibody, then incubated with the secondary antibody (HRP-conjugated goat anti-mouse IgG or goat anti-rabbit IgG, 1∶10000, KangChen Biotech, Shanghai, China) for 1 h at room temperature, respectively. Protein bands were visualized with an enhanced chemiluminescence (ECL) kit (Pierce, Rockford, IL). […]

CNE-2 xenograft = system: CNE-2 xenograft
Description: The use and care of experimental animal was approved by Institutional Animal Care and Use Committee, Roche R&D Center (China). Tumor cells were inoculated into the right flank of BALB/C nu/nu female nude mice (5∼6 weeks, 16∼18 g, obtained from Sino-British SIPPR/BK Lab. Animal Ltd, Shanghai, China) at optimal density based on our in-house validation study. After the tumor was established and reached 100∼150 mm^3, the mice were randomized into ten mice per group and received treatment according to the schedule. The tumor growth was recorded three times a week with the measurement of length (L) and width (W) by caliper, and calculated as tumor volume (TV, mm^3) = 0.5*L*W*W (mm). […] The tumor regression of individual mouse was defined - the tumor volume at the end was less than the tumor volume when treatment was initiated.

phospho-histone H3 (S10) = assay: Immunofluorescence / western blot of Aurora B activity marker in SGC-7901; assay type: cell-based, human
Protocol: as §2

[5] = Single dose pharmacokinetic (SDPK) study; assay type: in vivo; details: Nude Mouse
Protocol: Before the pharmacokinetic study, animals were randomly assigned to the sampling groups (3 animals per time point). Ten additional mice were used to collected plasma blank for calibration curves. The mice were fasted overnight before oral administration. […] The plasma samples and the dose formulation were stored at −20°C until bioanalysis. The data acquisition and control system were created using Analyst 1.4 software from ABI Inc. The concentrations in plasma below the limit of quantitation (LOQ = 1 ng/mL) were designated as zero. […] For rat, dog and monkey SDPK, the blood samples were collected from jugular vein puncture.

[6] = Plasma and tumor exposure at steady state in xenograft-bearing mice; assay type: in vivo, nude mice; design: Tumor AUC @ SS: unit not given here; details: for AUC: nude, mouse, po, read-out: Plasma AUC @ SS
Description: Supplementary file pone.0065264.s004.doc: Table S3 ED60/90 estimation from the R1498 exposure at steady state in tumors. The exposure in plasma and tumor at steady state were plot against tumor growth inhibiton rate to estimate the ED60/E90 doses. (DOC) Click here for additional data file.

GC46 xenograft = assay: Patient primary gastric tumor derived xenograft; assay type: in vivo, BALB/C nu/nu nude mice; details: GC46, 25 mpk bid, p.o.
Protocol: In human primary tumor models, fresh human gastric tumor tissues were directly implanted into nonobese diabetic and severe combined immune-deficient (NOD-SCID) mice within 5 hours post-surgery with 5 mm^3 fragments to establish primary tumor xenograft models. […] Treatment began when tumor volume reached 100∼150 mm^3. The tumor measurement and operation protocol was the same as cell line derived tumor model.

[7] = SGC-7901 synchronized with nocodazole, various concentrations, acute treatment

SMILES: COc1ccc2c(c1)C(c1ccccc1Cl)=Nc1c(n[nH]c1C)N2 [R1498]
- IC50 [1]: 7.81 µM
- IC50 [2]: 30.1 µM
- IC50 [3]: 7.55 µM
- Aurora A T288 green foci in mitotic cells (immunofluorescence) ([4]; SGC-7901, 5 µM, 24 h): became weaker or disappeared
- phosphorylation of phospho-Aurora kinase A (T288) (western blot) [4, 7]: decreased in a concentration-dependent manner
- Body weight changes% (CNE-2 xenograft; CNE-2, 25 mg/kg twice a day per oral gavage, before vs after treatment): 16.3%
- Tumor Regression (CNE-2 xenograft; CNE-2, 25 mg/kg twice a day per oral gavage, mice with regression/group): 0/10
- Final TGI% (CNE-2 xenograft; CNE-2, 25 mg/kg twice-daily per oral gavage, day of study termination): 90%
- phospho-histone H3 (S10) (immunofluorescence) (phospho-histone H3 (S10); SGC-7901, 5 µM, 24 h): decreased sharply
- phosphorylation of phospho-histone H3 (S10) (western blot) (phospho-histone H3 (S10); [7]): decreased in a concentration-dependent manner
- Oral BA ([5]; 10-100 mg/kg, micronized API suspension): 44-92 (10-100 mg/kg) %
- clearance ([5]; male, plasma, iv, 2 mg/kg, single dose): 6.3 mL/min/kg
- Vd ([5]; male, plasma, iv, 2 mg/kg, single dose, read-out: Vdss): 2 L/kg
- half-life ([5]; male, plasma, iv 2 mg/kg): 4 h
- Tumor AUC @ SS ([6]; BEL-7402, 3.125 mpk, bid, PO): 2219
- Tumor AUC @ SS ([6]; BEL-7402, 6.25 mpk, bid, PO): 6713
- Tumor AUC @ SS ([6]; BEL-7402, 12.5 mpk, bid, PO): 23886
- Tumor AUC @ SS ([6]; BEL-7404, 3.125 mpk, bid, PO): 9251
- Tumor AUC @ SS ([6]; BEL-7404, 6.25 mpk, bid, PO): 17558
- Tumor AUC @ SS ([6]; BEL-7404, 12.5 mpk, bid, PO): 37142
- Tumor AUC @ SS ([6]; BEL-7404, 12.5 mpk, single dose, PO (PK arm)): 30996
- Tumor AUC @ SS ([6]; BGC-823 (model cell empty, from line above), 25 mpk, single dose, PO (PK arm)): 49597
- Tumor AUC @ SS ([6]; BGC-823, 6.25 mpk, bid, PO): 9906
- Tumor AUC @ SS ([6]; BGC-823, 12.5 mpk, bid, PO): 39971
- Tumor AUC @ SS ([6]; BGC-823, 25 mpk, bid, PO): 70897
- Tumor AUC @ SS ([6]; SGC-7901 (model cell empty, from line above), 25 mpk, single dose, PO (PK arm)): 147592
- Tumor AUC @ SS ([6]; SGC-7901, 6.25 mpk, bid, PO): 25249
- Tumor AUC @ SS ([6]; SGC-7901, 12.5 mpk, bid, PO): 48130
- Tumor AUC @ SS ([6]; SGC-7901, 25 mpk, bid, PO): 78767
- AUC ([6]; in vivo, 12.5 mg/kg, BEL-7402, 12.5 mpk, bid, PO): 26100 ng·h/mL
- AUC ([6]; in vivo, 12.5 mg/kg, BEL-7404, 12.5 mpk, bid, PO): 21600 ng·h/mL
- AUC ([6]; in vivo, 12.5 mg/kg, BEL-7404, 12.5 mpk, single dose, PO (PK arm)): 15200 ng·h/mL
- AUC ([6]; in vivo, 12.5 mg/kg, BGC-823, 12.5 mpk, bid, PO): 31100 ng·h/mL
- AUC ([6]; in vivo, 12.5 mg/kg, SGC-7901, 12.5 mpk, bid, PO): 26900 ng·h/mL
- AUC ([6]; plasma, 3.125 mg/kg, BEL-7402, 3.125 mpk, bid, PO): 5380 ng·h/mL
- AUC ([6]; plasma, 3.125 mg/kg, BEL-7404, 3.125 mpk, bid, PO): 3560 ng·h/mL
- AUC ([6]; plasma, 6.25 mg/kg, BEL-7402, 6.25 mpk, bid, PO): 12600 ng·h/mL
- AUC ([6]; plasma, 6.25 mg/kg, BEL-7404, 6.25 mpk, bid, PO): 6560 ng·h/mL
- AUC ([6]; plasma, 6.25 mg/kg, BGC-823, 6.25 mpk, bid, PO): 10800 ng·h/mL
- AUC ([6]; plasma, 6.25 mg/kg, SGC-7901, 6.25 mpk, bid, PO): 11400 ng·h/mL
- AUC ([6]; plasma, 25 mg/kg, BGC-823 (model cell empty, from line above), 25 mpk, single dose, PO (PK arm)): 73300 ng·h/mL
- AUC ([6]; plasma, 25 mg/kg, BGC-823, 25 mpk, bid, PO): 43300 ng·h/mL
- AUC ([6]; plasma, 25 mg/kg, SGC-7901 (model cell empty, from line above), 25 mpk, single dose, PO (PK arm)): 70100 ng·h/mL
- AUC ([6]; plasma, 25 mg/kg, SGC-7901, 25 mpk, bid, PO): 47900 ng·h/mL
- Regression (GC46 xenograft): 2/10
- TGI% (GC46 xenograft): 73.6%
